From patent publication US7189720B2 (H. Lundbeck A/S, priority 1999, dated 2007)
Where two headings read alike, the source gives them in different places.

What was measured:
human Y5 receptor = target: T1, human Y5 receptor (Homo sapiens, UniProt Q15761); test: Radioligand binding to membranes, cloned human Y5 receptor
T1 construct: expressed in transfected cells; host or cells: mouse fibroblast LM(tk-) cells, e.g. L-hY5-7 (ATCC CRL-11995)
T1 sequence (Q15761 1-445): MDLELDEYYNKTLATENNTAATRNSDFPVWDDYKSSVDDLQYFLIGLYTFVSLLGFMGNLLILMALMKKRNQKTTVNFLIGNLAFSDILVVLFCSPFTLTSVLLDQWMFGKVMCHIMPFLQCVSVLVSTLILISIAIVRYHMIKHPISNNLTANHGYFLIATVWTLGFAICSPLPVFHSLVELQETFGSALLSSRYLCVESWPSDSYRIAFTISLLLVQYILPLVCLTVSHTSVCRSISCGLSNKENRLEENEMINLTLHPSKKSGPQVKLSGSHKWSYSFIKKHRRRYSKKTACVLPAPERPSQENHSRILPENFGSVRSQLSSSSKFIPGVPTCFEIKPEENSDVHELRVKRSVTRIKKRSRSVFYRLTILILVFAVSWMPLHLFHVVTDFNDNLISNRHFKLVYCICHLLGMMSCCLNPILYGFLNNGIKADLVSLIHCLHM
Method: (§1) Binding of the compounds of the present invention to human Y1, Y2, Y4, and Y5 receptors was evaluated using stably transfected 293 or LM(tk-) cells as described above.
(§2) Membranes were harvested from COS-7 cells 48 hours after transient transfection. Adherent cells were washed twice in ice-cold phosphate buffered saline (138 mM NaCl, 8.1 mM Na2HPO4, 2.5 mM KCl, 1.2 mM KH2PO4, 0.9 mM CaCl2, 0.5 mM MgCl2, pH 7.4) and lysed by sonication in ice-cold sonication buffer (20 mM Tris-HCl, 5 mM EDTA, pH 7.7). Large particles and debris were cleared by low speed centrifugation (200×g, 5 min, 4° C.). Membranes were collected from the supernatant fraction by centrifugation (32,000×g, 18 min, 4° C.), washed with ice-cold hypotonic buffer, and collected again by centrifugation (32,000×g, 18 min, 4° C.). The final membrane pellet was resuspended by sonication into a small volume of ice-cold binding buffer (˜1 ml for every 5 plates: 10 mM NaCl, 20 mM HEPES, 0.22 mM KH2PO4, 1.26 mM CaCl2, 0.81 mM MgSO4, pH 7.4). Protein concentration was measured by the Bradford method (Bradford, 1976) using Bio-Rad Reagent, with bovine serum albumin as a standard. Membranes were held on ice for up to one hour and used fresh, or flash-frozen and stored in liquid nitrogen.
(§3) Membranes were prepared similarly from 293, LM(tk-), and NIH-3T3 cells.
(§4) Membrane suspensions were diluted in binding buffer supplemented with 0.1% bovine serum albumin to yield an optimal membrane protein concentration so that ^125I-PYY (or alternative radioligand such as ^125I-NPY, ^125I-NYY3-36, or ^125I-[Leu^31Pro^34]PYY) bound by membranes in the assay was less than 10% of ^125I-PYY (or alternative radioligand) delivered to the sample (100,000 dpm/sample=0.08 nM for competition binding assays). ^125I-PYY (or alternative radioligand) and peptide competitors were also diluted to desired concentrations in supplemented binding buffer. Individual samples were then prepared in 96-well polypropylene microtiter plates by mixing ^125I-PYY (25 μL) (or alternative radioligand), competing peptides or supplemented binding buffer (25 μL), and finally, membrane suspensions (200 μL). Samples were incubated in a 30° C. water bath with constant shaking for 120 min. Incubations were terminated by filtration over Whatman GF/C filters (pre-coated with 1% polyethyleneimine and air-dried before use), followed by washing with 5 mL of ice-cold binding buffer. Filter-trapped membranes were impregnated with MeltiLex solid scintillant (Wallac, Turku, Finland) and counted for ^125I in a Wallac Beta-Plate Reader. Alternatively, incubations were carried out in GF/C filter plates (pre-coated with 1% polyethyleneimine and air-dried before use), followed by vacuum filtration and three washes of 300 μL of ice-cold binding buffer. 50 μL of UltimaGold (Packard) scintillant were added and counted for ^125I, in a Wallac MicroBeta Trilux. Non-specific binding was defined by 300 nM human NPY for all receptors except the Y4 subtypes; 100 nM human PP was used for the human Y4 and 100 nM rat PP for the rat Y4.

human Y1 receptor = target: T2, human Y1 receptor (Homo sapiens, UniProt P25929); test: Radioligand binding to membranes, cloned human Y1 receptor; conditions: hNPY-1 (one cell for Y1, Y2, Y4), read-out: Ki, nM hNPY-1,2,4
T2 construct: expressed in transfected cells; host or cells: human embryonic kidney 293 cells, e.g. 293-hY1-5 (ATCC CRL-12121)
T2 sequence (P25929 1-384): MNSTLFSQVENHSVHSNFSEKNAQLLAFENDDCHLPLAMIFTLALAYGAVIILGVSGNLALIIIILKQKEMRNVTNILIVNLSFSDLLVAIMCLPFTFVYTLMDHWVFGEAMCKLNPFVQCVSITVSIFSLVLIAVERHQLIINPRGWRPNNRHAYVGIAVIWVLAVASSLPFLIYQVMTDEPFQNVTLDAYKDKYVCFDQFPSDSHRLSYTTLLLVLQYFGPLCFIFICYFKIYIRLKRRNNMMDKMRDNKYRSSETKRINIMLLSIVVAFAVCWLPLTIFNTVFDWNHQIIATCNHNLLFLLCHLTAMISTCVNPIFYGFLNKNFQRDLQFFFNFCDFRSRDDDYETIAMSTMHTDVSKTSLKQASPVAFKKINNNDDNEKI
Method: as §1, §2, §3, §4

human Y4 receptor = target: T3, human Y4 receptor (Homo sapiens, UniProt P50391); test: Radioligand binding to membranes, cloned human Y4 receptor; conditions: hNPY-4 (one cell for Y1, Y2, Y4), read-out: Ki, nM hNPY-1,2,4
T3 construct: expressed in transfected cells; host or cells: mouse fibroblast LM(tk-) cells, e.g. L-hY4-3 (ATCC CRL-11779)
T3 sequence (P50391 whole entry): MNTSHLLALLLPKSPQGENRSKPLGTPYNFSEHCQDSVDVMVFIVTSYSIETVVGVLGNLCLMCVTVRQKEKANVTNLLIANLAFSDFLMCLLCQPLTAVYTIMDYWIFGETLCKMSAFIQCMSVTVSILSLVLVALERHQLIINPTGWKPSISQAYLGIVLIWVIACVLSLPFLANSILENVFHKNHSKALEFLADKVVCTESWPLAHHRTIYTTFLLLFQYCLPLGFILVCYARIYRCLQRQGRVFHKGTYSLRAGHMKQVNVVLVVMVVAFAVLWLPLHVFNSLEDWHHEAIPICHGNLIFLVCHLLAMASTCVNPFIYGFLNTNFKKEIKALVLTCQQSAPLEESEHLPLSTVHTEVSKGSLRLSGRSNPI
Method: as §1, §2, §3, §4

human Y2 receptor = target: T4, human Y2 receptor (Homo sapiens, UniProt P49146); test: Radioligand binding to membranes, cloned human Y2 receptor
T4 sequence (P49146 1-381): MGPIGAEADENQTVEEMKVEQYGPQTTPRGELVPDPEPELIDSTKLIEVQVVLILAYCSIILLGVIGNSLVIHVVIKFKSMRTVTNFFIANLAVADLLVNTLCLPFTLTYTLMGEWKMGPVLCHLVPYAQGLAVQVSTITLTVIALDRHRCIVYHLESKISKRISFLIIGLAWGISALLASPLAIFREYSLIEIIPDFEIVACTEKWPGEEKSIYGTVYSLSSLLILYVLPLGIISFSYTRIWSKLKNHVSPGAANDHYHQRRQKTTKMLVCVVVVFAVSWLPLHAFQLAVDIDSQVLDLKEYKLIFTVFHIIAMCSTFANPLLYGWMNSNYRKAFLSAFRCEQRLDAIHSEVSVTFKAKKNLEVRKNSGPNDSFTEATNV
Method: as §1, §2, §3, §4

[1] = Table 5, read-out: Ki, nM hNPY-5
[2] = Table 6, read-out: Ki, nM hNPY-5

Row | Structure (SMILES) | Ki (human Y5 receptor; [1]) [nM] | Ki (human Y1 receptor; Table 5) [nM] | Ki (human Y4 receptor; Table 5) [nM] | Ki (human Y2 receptor) [µM] | Ki (human Y5 receptor; [2]) [nM] | Ki (human Y1 receptor; Table 6) [nM] | Ki (human Y4 receptor; Table 6) [nM] | Ki (human Y5 receptor; Table 3, read-out: Ki (nM) hNPY-5) [nM]
1 | CN(C)S(=O)(=O)NCCCCCNc1nc(-c2ccsc2)cs1 [Example 82, N,N-Dimethyl-N′-(5-{[4-(3-Thienyl)-1,3-thiazol-2-yl]amino}pentyl)sulfamide] | 8.3 | > 10000 | > 10000 | > 10 |  |  |  | 
2 | O=S(=O)(NC[C@H]1CC[C@H](Nc2nc3c(s2)CCSc2ccccc2-3)CC1)c1cccc2nsnc12 [Example 118, N4-{[4-(4,5-Dihydrobenzo[2,3]thiepino[4,5-d][1,3]thiazol-2-ylamino)cyclohexyl]methyl}-2,1,3-benzothiadiazole-4-sulfonamide] |  |  |  | > 10 | 2.4 | > 10000 | > 10000 | 
3 | CCS(=O)(=O)NCCCCCNc1nc2c(s1)CCSc1ccccc1-2 [Example 109, N1-[5-(4,5-Dihydrobenzo[2,3]thiepino[4,5-d][1,3]thiazol-2-ylamino)pentyl]-1-ethanesulfonamide] |  |  |  | > 10 | 3.7 | > 10000 | > 10000 | 
4 | COc1ccc(C)cc1S(=O)(=O)NCCCCCNc1nc(-c2sc3ccc(Cl)cc3c2C)cs1 [Example 77, N1-(5-{[4-(5-Chloro-3-methylbenzo[b]thiophen-2-yl)-1,3-thiazol-2-yl]amino}pentyl)-2-methoxy-5-methyl-1-benzenesulfonamide] | 297 | > 10000 | > 10000 | > 10 |  |  |  | 
5 | COc1ccc(C)cc1S(=O)(=O)NCCCCCNc1nc(-c2ccncc2)cs1 [Example 75, 2-(5-(2-Methoxy-5-methyl)phenylsulfonylamino)pentylamino-4-(4-pyridyl)thiazole hydrogen chloride] | 5 | > 10000 | > 10000 | > 10 |  |  |  | 
6 | COc1ccc(C)cc1S(=O)(=O)NCCCCCNc1nc(-c2cccnc2)cs1 [Example 72, 2-(5-(2-Methoxy-5-methyl)phenylsulfonylamino)pentylamino-4-(3-pyridyl)thiazole hydrogen chloride] | 50 | > 10000 | > 10000 | > 10 |  |  |  | 
7 | O=S(=O)(NCCCCCNc1nc2c(s1)CCSc1ccc(F)cc1-2)c1cccs1 [Example 162, N2-{5-[(9-Fluoro-4,5-dihydrobenzo[2,3]thiepino[4,5-d][1,3]thiazol-2-yl)amino]pentyl}-2-thiophenesulfonamide] |  |  |  | > 10 | 4.8 | > 10000 | > 10000 | 
8 | O=S(=O)(NCCCCCCNc1nc2c(s1)CCSc1ccccc1-2)c1cccs1 [Example 106] |  |  |  | > 10 | 2.9 | > 10000 | > 10000 | 
9 | COc1ccc(C)cc1S(=O)(=O)NCCCCCNc1nc(-c2cc3ccccc3s2)cs1 [Example 76, N1-{5-[(4-Benzo[b]thiophen-2-yl-1,3-thiazol-2-yl)amino]-pentyl}-2-methoxy-5-methyl-1-benzenesulfonamide] | 11 | > 10000 | > 10000 | > 10 |  |  |  | 
10 | O=S(=O)(NC[C@H]1CC[C@H](Nc2nc(-c3cc(-c4ccccc4)no3)cs2)CC1)c1cccc2cccnc12 [Example 81, trans-N8-[(4-{[4-(3-Phenyl-5-isoxazolyl)-1,3-thiazol-2-yl]amino}cyclohexyl)methyl]-8-quinolinesulfonamide] | 155 | > 10000 | > 10000 | > 10 |  |  |  | 
11 | COc1ccc(C)cc1S(=O)(=O)NCCCCCNc1nc(-c2ccsc2)cs1 [Example 79, N1-(5-{[4-(3-Thienyl)-1,3-thiazol-2-yl]amino}pentyl)-2-methoxy-5-methyl-1-benzenesulfonamide] | 545 | > 10000 | > 10000 | > 10 |  |  |  | 
12 | O=S(=O)(NCCCCCNc1nc2c(s1)CCSc1ccccc1-2)c1cccs1 [Example 110, N2-[5-(4,5-Dihydrobenzo[2,3]thiepino[4,5-d][1,3]thiazol-2-ylamino)pentyl]-2-thiophenesulfonamide] |  |  |  | > 10 | 2.6 | > 10000 | > 10000 | 
13 | O=S(=O)(NCCCCCNc1nc2c(s1)CCSc1ccc(F)cc1-2)c1ccccc1F [Example 161, N1-{5-[(9-Fluoro-4,5-dihydrobenzo[2,3]thiepino[4,5-d][1,3]thiazol-2-yl)amino]pentyl}-2-fluoro-1-benzenesulfonamide] |  |  |  | > 10 | 4.9 | > 10000 | > 10000 | 
14 | O=S(=O)(NCCCCCNc1nc(-c2cccnc2)cs1)c1ccccc1F [Example 70, 2-(5-(2-Fluorophenyl)sulfonylamino)pentylamino-4-(3-pyridyl)thiazole hydrogen chloride] | 21 | > 10000 | > 10000 | > 10 |  |  |  | 
15 | Cc1cccc(F)c1S(=O)(=O)NC[C@H]1CC[C@H](Nc2nc3c(s2)CCSc2ccccc2-3)CC1 [Example 158, N1-{[4-(4,5-Dihydrobenzo[2,3]thiepino[4,5-d][1,3]thiazol-2-ylamino)cyclohexyl]methyl}-2-fluoro-6-methyl-1-benzenesulfonamide] |  |  |  | > 10 | 8.2 | > 10000 | > 10000 | 
16 | Cc1noc(C)c1S(=O)(=O)NCCCCCNc1nc(-c2ccncc2)cs1 [Example 74, 2-(5-(3,5-Dimethylisoxazol-4-yl)sulfonylamino)pentylamino-4-(4-pyridyl)thiazole hydrogen chloride] | 745 | > 10000 | > 10000 | > 10 |  |  |  | 
17 | COc1ccc(C)cc1S(=O)(=O)NCCCCCNc1nc2c(s1)CCSc1ccc(F)cc1-2 [Example 160, N1-{5-[(9-Fluoro-4,5-dihydrobenzo[2,3]thiepino[4,5-d][1,3]thiazol-2-yl)amino]pentyl}-2-methoxy-5-methyl-1-benzenesulfonamide] |  |  |  | > 10 | 2.8 | > 10000 | > 10000 | 
18 | O=S(=O)(NCCCCCNc1nc(-c2ccncc2)cs1)c1ccccc1F [Example 73, 2-(5-(2-Fluoro)phenylsulfonylamino)pentylamino-4-(4-pyridyl)thiazole hydrogen chloride] | 204 | > 10000 | > 10000 | > 10 |  |  |  | 
19 | COc1ccc(C)cc1S(=O)(=O)NCCCCCNc1nc(-c2cc(-c3ccccc3)on2)cs1 [Example 78] | 891 | > 10000 | > 10000 | > 10 |  |  |  | 
20 | CN(C)c1cccc2c(S(=O)(=O)NC[C@H]3CC[C@H](Nc4nc5c(s4)CCSc4ccccc4-5)CC3)cccc12 [Example 122, N1-{[4-(4,5-Dihydrobenzo[2,3]thiepino[4,5-d][1,3]thiazol-2-ylamino)cyclohexyl]methyl}-5-(dimethylamino)-1-naphthalenesulfonamide] |  |  |  |  | 27 |  |  | 
21 | CCN(CC)S(=O)(=O)NCCCCCNc1nc(-c2ccccn2)cs1 [Example 59, 2-(5-Diethylaminosulfonylamino)pentylamino-4-(2-pyridyl)-thiazole hydrogen chloride] |  | > 10000 | > 10000 | > 10 |  |  |  | 
22 | CC(C)Nc1nc(NCC2CCC(CNS(=O)(=O)N(C)C)CC2)nc(NC2CC2)n1 (stereo not shown) [Example 48, N′-[4-([4-(cyclopropylamino)-6-(isopropylamino)-1,3,5-triazin-2-yl]aminomethyl)cyclohexyl]methyl-N,N-dimethylsulfamide] |  |  |  |  |  |  |  | 192
23 | O=S(=O)(NCCCCCCNc1nc2c(s1)CCSc1ccccc1-2)c1cccc2ccccc12 [Example 114, N1-[6-(4,5-Dihydrobenzo[2,3]thiepino[4,5-d][1,3]thiazol-2-ylamino)hexyl]-1-naphthalenesulfonamide] |  |  |  |  | 16.6 |  |  | 
